# Numbers after ± are expanded uncertainties.
# Experiment: activity coefficient (dimensionless); of the first substance listed, at infinite dilution; xn = mol fraction of the nth substance listed
# Conditions: 312.55 K; 101 kPa; Liquid; Chromatography; x1 = 0
row,Compound,activity coefficient
1,CCCC(C)=O [pentan-2-one] + CCn1cc[n+](C)c1.CS(=O)(=O)[O-],7.79 ± 0.53
2,CCC(=O)CC [pentan-3-one] + CCn1cc[n+](C)c1.CS(=O)(=O)[O-],7.58 ± 0.52
3,CCCO [propan-1-ol] + CCn1cc[n+](C)c1.CS(=O)(=O)[O-],0.742 ± 0.049
4,CC(C)O [propan-2-ol] + CCn1cc[n+](C)c1.CS(=O)(=O)[O-],0.924 ± 0.058
5,CCC=O [propanal] + CCn1cc[n+](C)c1.CS(=O)(=O)[O-],2.76 ± 0.19
6,ClC(Cl)(Cl)Cl [tetrachloromethane] + CCn1cc[n+](C)c1.CS(=O)(=O)[O-],4.57 ± 0.31
7,CCCCCCCCCCCCCC [tetradecane] + CCn1cc[n+](C)c1.CS(=O)(=O)[O-],4070 ± 280
8,c1ccsc1 [thiophene] + CCn1cc[n+](C)c1.CS(=O)(=O)[O-],1.87 ± 0.13
9,ClC(Cl)Cl [trichloromethane] + CCn1cc[n+](C)c1.CS(=O)(=O)[O-],0.563 ± 0.04

# Same assay, conditions: 312.8 K; 101 kPa; Liquid; Chromatography; x1 = 0
row,Compound,activity coefficient
1,CCCCCCCC [octane] + CCCCCC[n+]1ccn(C)c1.FC(F)(F)C(F)(F)[P-](F)(F)(F)(C(F)(F)C(F)(F)F)C(F)(F)C(F)(F)F,12.2 ± 0.83
2,CCCC(C)=O [pentan-2-one] + CCCCCC[n+]1ccn(C)c1.FC(F)(F)C(F)(F)[P-](F)(F)(F)(C(F)(F)C(F)(F)F)C(F)(F)C(F)(F)F,0.271 ± 0.03
3,CCC(=O)CC [pentan-3-one] + CCCCCC[n+]1ccn(C)c1.FC(F)(F)C(F)(F)[P-](F)(F)(F)(C(F)(F)C(F)(F)F)C(F)(F)C(F)(F)F,0.236 ± 0.029
4,CCCO [propan-1-ol] + CCCCCC[n+]1ccn(C)c1.FC(F)(F)C(F)(F)[P-](F)(F)(F)(C(F)(F)C(F)(F)F)C(F)(F)C(F)(F)F,2.47 ± 0.17
5,CC(C)O [propan-2-ol] + CCCCCC[n+]1ccn(C)c1.FC(F)(F)C(F)(F)[P-](F)(F)(F)(C(F)(F)C(F)(F)F)C(F)(F)C(F)(F)F,2.06 ± 0.14
6,CCC=O [propanal] + CCCCCC[n+]1ccn(C)c1.FC(F)(F)C(F)(F)[P-](F)(F)(F)(C(F)(F)C(F)(F)F)C(F)(F)C(F)(F)F,0.274 ± 0.03
7,c1ccncc1 [pyridine] + CCCCCC[n+]1ccn(C)c1.FC(F)(F)C(F)(F)[P-](F)(F)(F)(C(F)(F)C(F)(F)F)C(F)(F)C(F)(F)F,0.302 ± 0.031
8,ClC(Cl)(Cl)Cl [tetrachloromethane] + CCCCCC[n+]1ccn(C)c1.FC(F)(F)C(F)(F)[P-](F)(F)(F)(C(F)(F)C(F)(F)F)C(F)(F)C(F)(F)F,2.19 ± 0.15
9,c1ccsc1 [thiophene] + CCCCCC[n+]1ccn(C)c1.FC(F)(F)C(F)(F)[P-](F)(F)(F)(C(F)(F)C(F)(F)F)C(F)(F)C(F)(F)F,0.577 ± 0.041
10,Cc1ccccc1 [toluene] + CCCCCC[n+]1ccn(C)c1.FC(F)(F)C(F)(F)[P-](F)(F)(F)(C(F)(F)C(F)(F)F)C(F)(F)C(F)(F)F,0.674 ± 0.046
11,ClC(Cl)Cl [trichloromethane] + CCCCCC[n+]1ccn(C)c1.FC(F)(F)C(F)(F)[P-](F)(F)(F)(C(F)(F)C(F)(F)F)C(F)(F)C(F)(F)F,1.09 ± 0.069

# Same assay, conditions: 322.45 K; 101 kPa; Liquid; Chromatography; x1 = 0
row,Compound,activity coefficient
1,CCCC(C)=O [pentan-2-one] + CCn1cc[n+](C)c1.CS(=O)(=O)[O-],7.7 ± 0.53
2,CCC(=O)CC [pentan-3-one] + CCn1cc[n+](C)c1.CS(=O)(=O)[O-],7.45 ± 0.51
3,CCCO [propan-1-ol] + CCn1cc[n+](C)c1.CS(=O)(=O)[O-],0.734 ± 0.049
4,CC(C)O [propan-2-ol] + CCn1cc[n+](C)c1.CS(=O)(=O)[O-],0.907 ± 0.058
5,CCC=O [propanal] + CCn1cc[n+](C)c1.CS(=O)(=O)[O-],2.71 ± 0.18
6,ClC(Cl)(Cl)Cl [tetrachloromethane] + CCn1cc[n+](C)c1.CS(=O)(=O)[O-],4.79 ± 0.33
7,CCCCCCCCCCCCCC [tetradecane] + CCn1cc[n+](C)c1.CS(=O)(=O)[O-],4000 ± 280
8,c1ccsc1 [thiophene] + CCn1cc[n+](C)c1.CS(=O)(=O)[O-],1.91 ± 0.13
9,ClC(Cl)Cl [trichloromethane] + CCn1cc[n+](C)c1.CS(=O)(=O)[O-],0.479 ± 0.037

# Same assay, conditions: 322.55 K; 101 kPa; Liquid; Chromatography; x1 = 0
row,Compound,activity coefficient
1,CCCCCCCC [octane] + CCCCn1cc[n+](C)c1.O=S(=O)([N-]S(=O)(=O)C(F)(F)C(F)(F)F)C(F)(F)C(F)(F)F,20.4 ± 1.4
2,CCCC(C)=O [pentan-2-one] + CCCCn1cc[n+](C)c1.O=S(=O)([N-]S(=O)(=O)C(F)(F)C(F)(F)F)C(F)(F)C(F)(F)F,0.666 ± 0.045
3,CCC(=O)CC [pentan-3-one] + CCCCn1cc[n+](C)c1.O=S(=O)([N-]S(=O)(=O)C(F)(F)C(F)(F)F)C(F)(F)C(F)(F)F,0.624 ± 0.043
4,CCCO [propan-1-ol] + CCCCn1cc[n+](C)c1.O=S(=O)([N-]S(=O)(=O)C(F)(F)C(F)(F)F)C(F)(F)C(F)(F)F,1.99 ± 0.14
5,CC(C)O [propan-2-ol] + CCCCn1cc[n+](C)c1.O=S(=O)([N-]S(=O)(=O)C(F)(F)C(F)(F)F)C(F)(F)C(F)(F)F,1.77 ± 0.12
6,CCC=O [propanal] + CCCCn1cc[n+](C)c1.O=S(=O)([N-]S(=O)(=O)C(F)(F)C(F)(F)F)C(F)(F)C(F)(F)F,0.539 ± 0.039
7,c1ccncc1 [pyridine] + CCCCn1cc[n+](C)c1.O=S(=O)([N-]S(=O)(=O)C(F)(F)C(F)(F)F)C(F)(F)C(F)(F)F,0.386 ± 0.033
8,ClC(Cl)(Cl)Cl [tetrachloromethane] + CCCCn1cc[n+](C)c1.O=S(=O)([N-]S(=O)(=O)C(F)(F)C(F)(F)F)C(F)(F)C(F)(F)F,2.4 ± 0.16
9,CCCCCCCCCCCCCC [tetradecane] + CCCCn1cc[n+](C)c1.O=S(=O)([N-]S(=O)(=O)C(F)(F)C(F)(F)F)C(F)(F)C(F)(F)F,153 ± 11
10,c1ccsc1 [thiophene] + CCCCn1cc[n+](C)c1.O=S(=O)([N-]S(=O)(=O)C(F)(F)C(F)(F)F)C(F)(F)C(F)(F)F,0.977 ± 0.061
11,Cc1ccccc1 [toluene] + CCCCn1cc[n+](C)c1.O=S(=O)([N-]S(=O)(=O)C(F)(F)C(F)(F)F)C(F)(F)C(F)(F)F,1.4 ± 0.091
12,ClC(Cl)Cl [trichloromethane] + CCCCn1cc[n+](C)c1.O=S(=O)([N-]S(=O)(=O)C(F)(F)C(F)(F)F)C(F)(F)C(F)(F)F,0.613 ± 0.043

# Same assay, conditions: 323.1 K; 101 kPa; Liquid; Chromatography; x1 = 0
row,Compound,activity coefficient
1,CCCCCCCC [octane] + CCCCCCCCCCn1cc[n+](CCCCCCCCCC)c1C.O=S(=O)([N-]S(=O)(=O)C(F)(F)F)C(F)(F)F,2.54 ± 0.17
2,CCCC(C)=O [pentan-2-one] + CCCCCCCCCCn1cc[n+](CCCCCCCCCC)c1C.O=S(=O)([N-]S(=O)(=O)C(F)(F)F)C(F)(F)F,0.397 ± 0.034
3,CCC(=O)CC [pentan-3-one] + CCCCCCCCCCn1cc[n+](CCCCCCCCCC)c1C.O=S(=O)([N-]S(=O)(=O)C(F)(F)F)C(F)(F)F,0.37 ± 0.03
4,CCCO [propan-1-ol] + CCCCCCCCCCn1cc[n+](CCCCCCCCCC)c1C.O=S(=O)([N-]S(=O)(=O)C(F)(F)F)C(F)(F)F,1.31 ± 0.085
5,CC(C)O [propan-2-ol] + CCCCCCCCCCn1cc[n+](CCCCCCCCCC)c1C.O=S(=O)([N-]S(=O)(=O)C(F)(F)F)C(F)(F)F,1.27 ± 0.082
6,c1ccncc1 [pyridine] + CCCCCCCCCCn1cc[n+](CCCCCCCCCC)c1C.O=S(=O)([N-]S(=O)(=O)C(F)(F)F)C(F)(F)F,0.328 ± 0.032
7,ClC(Cl)(Cl)Cl [tetrachloromethane] + CCCCCCCCCCn1cc[n+](CCCCCCCCCC)c1C.O=S(=O)([N-]S(=O)(=O)C(F)(F)F)C(F)(F)F,0.776 ± 0.051
8,c1ccsc1 [thiophene] + CCCCCCCCCCn1cc[n+](CCCCCCCCCC)c1C.O=S(=O)([N-]S(=O)(=O)C(F)(F)F)C(F)(F)F,0.422 ± 0.035
9,Cc1ccccc1 [toluene] + CCCCCCCCCCn1cc[n+](CCCCCCCCCC)c1C.O=S(=O)([N-]S(=O)(=O)C(F)(F)F)C(F)(F)F,0.512 ± 0.038
10,ClC(Cl)Cl [trichloromethane] + CCCCCCCCCCn1cc[n+](CCCCCCCCCC)c1C.O=S(=O)([N-]S(=O)(=O)C(F)(F)F)C(F)(F)F,0.374 ± 0.033

# Same assay, conditions: 332.45 K; 101 kPa; Liquid; Chromatography; x1 = 0
row,Compound,activity coefficient
1,CCCC(C)=O [pentan-2-one] + CCn1cc[n+](C)c1.CS(=O)(=O)[O-],7.57 ± 0.52
2,CCC(=O)CC [pentan-3-one] + CCn1cc[n+](C)c1.CS(=O)(=O)[O-],7.37 ± 0.5
3,CCCO [propan-1-ol] + CCn1cc[n+](C)c1.CS(=O)(=O)[O-],0.722 ± 0.048
4,CC(C)O [propan-2-ol] + CCn1cc[n+](C)c1.CS(=O)(=O)[O-],0.877 ± 0.056
5,CCC=O [propanal] + CCn1cc[n+](C)c1.CS(=O)(=O)[O-],2.65 ± 0.18
6,ClC(Cl)(Cl)Cl [tetrachloromethane] + CCn1cc[n+](C)c1.CS(=O)(=O)[O-],0.669 ± 0.045
7,CCCCCCCCCCCCCC [tetradecane] + CCn1cc[n+](C)c1.CS(=O)(=O)[O-],3830 ± 260
8,c1ccsc1 [thiophene] + CCn1cc[n+](C)c1.CS(=O)(=O)[O-],1.95 ± 0.13
9,ClC(Cl)Cl [trichloromethane] + CCn1cc[n+](C)c1.CS(=O)(=O)[O-],1.42 ± 0.093

# Same assay, conditions: 332.85 K; 101 kPa; Liquid; Chromatography; x1 = 0
row,Compound,activity coefficient
1,CCCCCCCC [octane] + CCCCCC[n+]1ccn(C)c1.FC(F)(F)C(F)(F)[P-](F)(F)(F)(C(F)(F)C(F)(F)F)C(F)(F)C(F)(F)F,10.5 ± 0.72
2,CCCC(C)=O [pentan-2-one] + CCCCCC[n+]1ccn(C)c1.FC(F)(F)C(F)(F)[P-](F)(F)(F)(C(F)(F)C(F)(F)F)C(F)(F)C(F)(F)F,0.298 ± 0.031
3,CCC(=O)CC [pentan-3-one] + CCCCCC[n+]1ccn(C)c1.FC(F)(F)C(F)(F)[P-](F)(F)(F)(C(F)(F)C(F)(F)F)C(F)(F)C(F)(F)F,0.28 ± 0.03
